Common to all, as to type: cell-based, Human
The test system of experiment [1] is A172 cells. The experiment is described as follows: Apoptosis assay, Annexin V-FITC and PI, FACS, A172. The following applies: 48 hours, F4-SM 10 μg/mL, F5-SM 10 μg/mL, Doxo 0.5 μg/mL. The procedure: Apoptosis assay—Apoptosis for the A172 cell line was assessed using MEBCYTO Apoptosis Kit with Annexin V-FITC and PI (MBL, Enco, 4700). Staining was carried out according to manufacturer's instructions. In brief, cells were seeded in a 6-well TC plate, at a density of 4×10^5 cells in 2 mL of SFM per well. 24 hours following seeding, cells were treated with the indicated treatments in complete medium for 48 hours. Following incubation, cells were harvested using trypsin and centrifuged for 5 minutes at 1600 rpm. Cell pellets were resuspended and washed twice with 1 mL of PBS. The cells in each sample were resuspended in 85 μL of Annexin binding buffer. Cells were stained using 10 μL of Annexin V-FITC solution and 5 μL of propidium iodide (PI) working solution followed by incubation in the dark at room temperature for 15 minutes. Then 400 μL of Annexin V binding buffer was added to each tube and flow cytometry was performed using a Gallios flow cytometer (FACS). Cells were considered apoptotic if they were Annexin V+/PI− (early apoptosis) or Annexin V+/PI+ (late apoptosis). Live cells were defined as Annexin V−/PI−, and Annexin V−/PI+ as necrosis.

In experiment [2] the test system is A172 cells. Kind of experiment: Cell cycle analysis, PI staining, FACS, A172. Conditions: 24 hours; SM 10 μg/mL, Doxo 0.5 μg/mL; control 10.2%. The procedure:
Cell cycle analysis—A172 cells were seeded in 6-well TC plate at a concentration of 4×10^5 cells in 2 mL of SFM per well. Following 24 hours incubation, cells were treated with indicated treatments in complete medium for 24 hours. Methanol and doxorubicin were used as negative and positive controls, respectively. Cells were harvested and centrifuged for 5 minutes at 1600 rpm. Cell pellets were washed once with 1 mL of PBS and fixed with 70% cold ethanol overnight at −20° C. The fixed cells were washed twice with 1 mL of PBS and stained with 250 μL of PI solution (50 μg/mL) containing RNase A (100 μg/mL) for 30 minutes in dark conditions. 250 μL PBS was added to each tube and the cells were analyzed using FACS.

Experiment [3] concerns A172 cells. The experiment is described as follows: Scratch-wound assay, A172 cell migration. Conditions: 36 hours; F4 20, F4-SM 11.5, F5 20, F5-SM 11.5, Doxo 0.5 μg/mL. The procedure: Scratch-wound assay—A172 cells were seeded in a 96-well plate at a density of 2×10^4 per well in 100 μL of complete medium. Following 24 hours, cells in each well were scratched perpendicularly across the center of the well with a 200 μL pipette tip to produce a cell-free area for investigating the ability of the cells to migrate and close the gap under different treatments. Immediately following scratching, 100 μL of treatment solution was added. Photos were taken by a CARL ZEISS inverted microscope coupled with a camera at 0, 14, 20, and 36 hours following scratching, and the gap area was measured using ImageJ (version 1.53a). The scratch area, indicated by cells migrated into the scratch was calculated as percent of scratch area at time x from time 0: […]

For the next experiment, the system named is U87 cells. The experiment is described as follows: 3D models (hydrogel) of U87 cells: colonies and Alamar Blue viability. Conditions: U87 from 3D structures, 48 hours; Doxorubicin 2, F4 20, F4-SM 12.5, F5 16.5, F5-SM 10 μg/ml; control 98.52. The procedure: 3D models—Hydrogels (AGFCH) included Sigma-Aldrich products and were prepared using alginate (W201502; Sigma-Aldrich, USA) 22.5 mg/mL, gelatin (G9764; Bio-Basic, USA) 45 mg/mL, fibrinogen (F38791; Sigma-Aldrich, USA) 50 mg/mL, collagen (C9791; Sigma-Aldrich, USA) 2.2 mg/mL and hyaluronic acid (O8185; Sigma-Aldrich, USA) 2 mg/mL in PBS-glycerol solvent. The gel (AGFCH) was mixed with U87 cells at a concentration of 2×10^6 cells per 400 μL gel. The solutions were mixed gently and transferred as 25 μL of gel solution to a 24-well plate. 3D models were cross-linked using CaCl2 (A610050; Bio-Basic, USA) and thrombin (SRP6557; Sigma-Aldrich, USA) for 5 minutes, following the 3D structure was washed with PBS and then immersed in 1 mL of EMEM complete medium. Cells in the 3D structures were allowed to grow for 2 days and then the indicated treatments were administered for 8 days (treatments were repeated every 2 days). Structures were stained using EasyProbe Hoechst, as described above. To assess cell viability, the 3D structure was digested using 200 μL of 0.05M sodium citrate (C3434; Sigma-Aldrich, USA) and 0.05M EDTA (03-052-1A; Biological Industries, Israel) solution for 5 minutes. […] Percentage of colony in the different treatments was calculated out of average number of colonies in the control.

Marks after values point to notes of the source that are not given here.

In turn, `COc1cccc2c1C(=O)c1c(O)c3c(c(O)c1C2=O)C[C@@](O)(C(=O)CO)C[C@@H]3O[C@H]1C[C@H](N)[C@H](O)[C@H](C)O1` [Doxorubicin] had a necrotic cells in the experiment on A172 cells [1] (methanol control 3.4%) of 23.8%. Besides, in the experiment with A172 cells [1] (vehicle control 8.0%), the cell apoptosis came out at 60.6%. The “percentage of cells in the G2-M phase” value with A172 cells [2] is 11.6%. For the same compound, the “inhibition of cell migration in comparison to the vehicle control” value in the experiment with A172 cells [3] is reported as 28.8%. The “Mean (% of Live cells)” value in the experiment with U87 cells is on record as 37.22 ± 3.08^c %.
